Measurements reported in publication PMC9072222 (RSC Advances, 2019).

Key:
db/db mice [1] = assay: Modified multiple IPGTTs in fasted db/db mice; format: in vivo, mouse; details: 0.1 mg kg^−1 single dose, IPGTT at 30 hours
db/db mice [2] = assay: Hypoglycemic duration test in non-fasted db/db mice; format: in vivo, mouse; details: 0.1 mg kg^−1 s.c., n = 8
db/db mice [3] = assay: Chronic 8 week in vivo study in db/db mice; set-up: species or system mouse; details: Liraglutide 0.1 mg kg^−1 s.c., 8 week treatment, blood
[4] = species not given; ref not given; cited from earlier work

Question: Which “glucose-lowering effect at 30 hours” value (db/db mice [1]) does the source give for `CCCCCCCCCCCCCCCC(=O)N[C@@H](CCC(=O)NCCCC[C@H](NC(=O)[C@H](C)NC(=O)[C@H](C)NC(=O)[C@H](CCC(N)=O)NC(=O)CNC(=O)[C@H](CCC(=O)O)NC(=O)[C@H](CC(C)C)NC(=O)[C@H](Cc1ccc(O)cc1)NC(=O)[C@H](CO)NC(=O)[C@H](CO)NC(=O)[C@@H](NC(=O)[C@H](CC(=O)O)NC(=O)[C@H](CO)NC(=O)[C@@H](NC(=O)[C@H](Cc1ccccc1)NC(=O)[C@@H](NC(=O)CNC(=O)[C@H](CCC(=O)O)NC(=O)[C@H](C)NC(=O)[C@@H](N)Cc1cnc[nH]1)[C@@H](C)O)[C@@H](C)O)C(C)C)C(=O)N[C@@H](CCC(=O)O)C(=O)N[C@@H](Cc1ccccc1)C(=O)N[C@H](C(=O)N[C@@H](C)C(=O)N[C@@H](Cc1c[nH]c2ccccc12)C(=O)N[C@@H](CC(C)C)C(=O)N[C@H](C(=O)N[C@@H](CCCNC(=N)N)C(=O)NCC(=O)N[C@@H](CCCNC(=N)N)C(=O)NCC(=O)O)C(C)C)[C@@H](C)CC)C(=O)O` [Liraglutide] here?
Answer: almost ineffective

Question: And the “glucose-lowering percentage by AUC0–96 h vs saline” value (db/db mice [2])?
Answer: 18.9%

Question: What about the ALT (db/db mice [3]) of the same compound?
Answer: 45.1 ± 5.1 IU L^−1

Question: And the Cholesterol (db/db mice [3])?
Answer: 4.1 ± 0.6 mmol/L

Question: What about the HDL-cholesterol (db/db mice [3]) of the same compound?
Answer: 2.6 ± 0.1 mmol/L

Question: What about the LDL-cholesterol (db/db mice [3]) of the same compound?
Answer: 0.8 ± 0.1 mmol/L

Question: What about the Triglyceride (db/db mice [3]) of the same compound?
Answer: 1.1 ± 0.2 mmol/L

Question: What about the in vivo half-life [4] of the same compound?
Answer: ~8 h
